# Experiments:
# Type in all cases: in vivo
# corn (P2307) = assay: Test Example 2: corn seeds on filter paper under 125 mM sodium chloride salt stress
# Method: A flowable agent containing 10% of the compound of formula (I)-1 was diluted 106 times with water to obtain chemical solution 2a.
# Eight layers of filter paper were placed at the center of a laboratory dish, and seeds (five seeds) of corn (P2307) were placed on the filter paper. Four of these were prepared.
# (1) 125 mM sodium chloride and 10 mL of chemical solution 2a were poured into the laboratory dish (Example 2a).
# (2) 125 mM sodium chloride and 10 ml of water were poured into the laboratory dish (Comparative Example 2a).
# (3) 10 mL of water was poured into the laboratory dish (Comparative Example 2b).
# Each laboratory dish was placed in a growth chamber set at 25° C. and light/dark=16/8. After 4 days, the number of roots, the root length, and the foliage length were measured for five seeds in each of (1) to (3). The recovery percentage was calculated in the same manner as in Test Example 1.
# wheat (Norin 61) [1] = assay: Test Example 3: wheat seeds on filter paper under 125 mM sodium chloride salt stress; conditions: for Foliage Length / Root Length / Root Number of roots / Foliage Recovery percentage / Root Recovery percentage: after 4 days; for Foliage Recovery percentage / Root Recovery percentage: relative to Comparative Examples 3a and 3b
# Method: A flowable agent containing 10% of the compound of formula (I)-1 was diluted 105 times and 107 times with water to obtain chemical solution 3a and chemical solution 3b, respectively.
# (§1) Eight layers of filter paper were placed at the center of a laboratory dish, and seeds (six seeds) of wheat (Norin 61) were placed on the filter paper. Four of these were prepared.
# (1) 125 mM sodium chloride and 10 mL of chemical solution 2a were poured into the laboratory dish (Example 3a).
# (2) 125 mM sodium chloride and 10 mL of chemical solution 2b were poured into the laboratory dish (Example 3b).
# (3) 125 mM sodium chloride and 10 ml of water were poured into the laboratory dish (Comparative Example 3a).
# (4) 10 mL of water was poured into the laboratory dish (Comparative Example 3b).
# Each laboratory dish was placed in a growth chamber set at 25° C. and light/dark=16/8. After 4 days, the number of roots, the root length, and the foliage length were measured for five seeds in each of (1) to (4). The recovery percentage was calculated in the same manner as in Test Example 1.
# [2] = test system: edible corn (Idaho Sweet 88); assay: Test Example 5: corn pot test, 8 g/L sodium chloride solution poured over soil; conditions: 8 g/L NaCl
# Method: (§2) (1) Example 5a: 8 g/L sodium chloride solution and chemical solution 5a were poured.
# (§3) (2) Comparative Example 5a: 8 g/L sodium chloride solution and water were poured.
# (§4) (3) Comparative Example 5b: Water was poured.
# (§5) Plastic pots were filled with Kannami soil, and seeds of edible corn (Idaho Sweet 88) and soybean (Enrei) were sowed in their respective pots, three seeds for each pot (3 cm in depth). Each test was repeated three times. The plants were grown with subirrigation in a greenhouse.
# (§6) A flowable agent containing 5% of the compound of formula (I)-1 was diluted 103 times with water to prepare chemical solution 5, and 17.3 mL of this chemical solution was poured for each pot on the 8th day after sowing (only Example 5a).
# (§7) After the chemical treatment, with a pot without holes placed at the bottom, tap water was misted from above on weekends and holidays, and 50 mL of tap water was poured over the soil for each pot every weekday.
# (§8) From the 11th day after sowing, 8 g/L sodium chloride solution was poured over the soil, 50 mL for each pot, every day (only Example 5a and Comparative Example 5a).
# (§9) On the 19th day after sowing, the largest root length (cm), the plant height (cm), and the top and root dry weights (g) were measured.
# [3] = test system: wheat (variety: Kitahonami); assay: Test Example 6: wheat pot test, 8 g/L sodium chloride solution poured over soil; conditions: 8 g/L NaCl
# Method: (1) Example 6a: 8 g/L sodium chloride solution and chemical solution 6a were poured.
# (2) Comparative Example 6a: 8 g/L sodium chloride solution and water were poured.
# (3) Comparative Example 6b: Water was poured.
# Plastic pots were filled with Kannami soil, and five seeds of wheat (variety: Kitahonami) were sowed at the center of each pot (3 cm in depth). Each test was repeated three times.
# After sowing, the pots were allowed to stand in a growth chamber (20° C. dark room) for 4 days and then moved to a greenhouse.
# A flowable agent containing 5% of a compound of formula (I)-1 was diluted 103 times with water to prepare chemical solution 6, and 17.3 mL of this chemical solution was poured for each pot on the 7th day after sowing (only Example 6a).
# From the 10th day after sowing, 8 g/L sodium chloride solution was poured over the soil, 30 mL for each pot, once a day (only Example 6a and Comparative Example 6a).
# On the 17th day after sowing, the largest root length (cm), the number of rooted individuals, the plant height (cm), and the top and root dry weights (g) were measured.
# [4] = test system: rice (Koshihikari: Oryza sativa); assay: Test Example 4: rice in Wagner pots under submerged conditions with sodium chloride aqueous solution
# Method: In the middle of June, Arakidatsuchi (2 mm sieved, Akagi Engei) was placed in a Wagner pot (1/5000 a), and five grains of dried seed rice (Koshihikari: Oryza sativa) were sown at the center of the Wagner pot at a sowing depth of 3 mm to 5 mm, thus starting raising by direct seeding under submerged conditions. Individuals except for one well-grown individual from which 2 to 3 tillers appeared were cut for thinning with scissors on the 28th day after sowing. Ten pots of these were prepared.
# Midseason drainage was performed on the 47th to 49th day after sowing. A flowable agent containing 10% of the compound of formula (I)-1 was diluted 103 times with water to obtain chemical solution 4. […]
# The number of withered, dead stems, the number of rolled leaves, the number of crown roots, the amount of water decrease, and the length of leaf tip blight were measured on the 68th day after sowing. […]
# The plant height, the number of stems, the culm length, the number of ears, the ear length, the number of whitened unhulled rice grains, the leaf color of flag leaves, and the numbers of flag leaf blights and withered, dead leaves were measured in the heading period or after. […]
# The culm length, the number of ears, the ear length, the number of whitened unhulled rice grains, the leaf color of flag leaves, and the numbers of flag leaf blights and withered, dead leaves were measured on the 106th day after sowing. […]
# wheat (Norin 61) [5] = assay: Test Example 1: wheat seeds on filter paper under 125 mM sodium chloride salt stress; conditions: for Foliage Length / Root Length / Root Number of roots / Foliage Recovery percentage / Root Recovery percentage: after 6 days; for Foliage Length / Root Length / Root Number of roots: average of six seeds; for Foliage Recovery percentage / Root Recovery percentage: relative to Comparative Examples 1a and 1b
# Method: A flowable agent containing 10% of the compound of formula (I)-1 was diluted 103 times and 104 times with water to obtain chemical solution 1a and chemical solution 1b, respectively.
# as §1
# (1) 125 mM sodium chloride and 10 mL of chemical solution 1a were poured into the laboratory dish (Example 1a).
# (2) 125 mM sodium chloride and 10 mL of chemical solution 1b were poured into the laboratory dish (Example 1b).
# (3) 125 mM sodium chloride and 10 mL of water were poured into the laboratory dish (Comparative Example 1a).
# (4) 10 mL of water was poured into the laboratory dish (Comparative Example 1b).
# Each laboratory dish was placed in a growth chamber set at 25° C. and light/dark=16/8. After 6 days, the number of roots, the root length, and the foliage length were measured for six seeds in each of (1) to (4).
# The recovery percentage was calculated from the following equation:
# [formula] • X: Chemical treatment, sodium chloride applied • Y: No chemical treatment, sodium chloride applied • Z: No chemical treatment, no sodium chloride treatment
# soybean (Enrei) = assay: Test Example 5: soybean pot test, 8 g/L sodium chloride solution poured over soil; conditions: 8 g/L NaCl
# Method: as §2, §3, §4, §5, §6, §7, §8, §9
# [6] = 125 mM sodium chloride + 10 mL chemical solution 2a (10% flowable diluted 106 times), after 4 days, average of five seeds
# [7] = 125 mM sodium chloride + chemical solution 2a (diluted 106 times), after 4 days, relative to Comparative Examples 2a and 2b
# [8] = 125 mM sodium chloride salt stress, vs salt stress without the compound
# [9] = 125 mM sodium chloride + 10 mL chemical solution 3a (10% flowable diluted 105 times; b105 prints chemical solution 2a)
# [10] = 125 mM sodium chloride + 10 mL chemical solution 3b (10% flowable diluted 107 times; b106 prints chemical solution 2b)
# [11] = 125 mM sodium chloride + chemical solution 3a (diluted 105 times)
# [12] = 125 mM sodium chloride + chemical solution 3b (diluted 107 times)
# [13] = 5% flowable diluted 103 times, 19th day after sowing
# [14] = 17.3 mL per pot of 5% flowable diluted 103 times on 8th day, measured 19th day after sowing
# [15] = vs salt stress without the compound
# [16] = 5% flowable diluted 103 times, 17th day after sowing
# [17] = 17.3 mL per pot of 5% flowable diluted 103 times on 7th day, measured 17th day after sowing
# [18] = 125 mM sodium chloride + 10 mL chemical solution 1a (10% flowable diluted 103 times)
# [19] = 125 mM sodium chloride + 10 mL chemical solution 1b (10% flowable diluted 104 times)
# [20] = 125 mM sodium chloride + chemical solution 1a (diluted 103 times)
# [21] = 125 mM sodium chloride + chemical solution 1b (diluted 104 times)
compound,measurement,setting,value
Cn1nnnc1C(=NOCc1cccc(NC(=O)OC(C)(C)C)n1)c1ccccc1 [compound of formula (I)-1],Foliage Length,corn (P2307); [6],17.2 mm
same,Root Length,corn (P2307); [6],38.6 mm
same,Root Number of roots,corn (P2307); [6],5.2
same,Foliage Recovery percentage,corn (P2307); [7],28.3%
same,Root Recovery percentage,corn (P2307); [7],33.8%
same,Recovery compared with Comparative Example 2a (in words),corn (P2307); [8],more recovery
same,Foliage Length,wheat (Norin 61) [1]; [9],23.3 mm
same,Root Length,wheat (Norin 61) [1]; [9],30.8 mm
same,Root Number of roots,wheat (Norin 61) [1]; [9],4.0
same,Foliage Length,wheat (Norin 61) [1]; [10],25.0 mm
same,Root Length,wheat (Norin 61) [1]; [10],29.0 mm
same,Root Number of roots,wheat (Norin 61) [1]; [10],4.0
same,Foliage Recovery percentage,wheat (Norin 61) [1]; [11],0.0%
same,Root Recovery percentage,wheat (Norin 61) [1]; [11],41.8%
same,Foliage Recovery percentage,wheat (Norin 61) [1]; [12],0.0%
same,Root Recovery percentage,wheat (Norin 61) [1]; [12],19.0%
same,Recovery in the root compared with Comparative Example 3a (in words),wheat (Norin 61) [1]; [8],more recovery in the root
same,Plant height Corn A: number relative to 100 of Comparative Example 5b,[2]; [13],91
same,Root dry weight Corn A: number relative to 100 of Comparative Example 5b,[2]; [13],90
same,Root length Corn A: number relative to 100 of Comparative Example 5b,[2]; [13],96
same,Top dry weight Corn A: number relative to 100 of Comparative Example 5b,[2]; [13],83
same,Plant height Corn,[2]; [14],37.0 cm
same,Root dry weight Corn,[2]; [14],0.10 g
same,Root length Corn,[2]; [14],17.3 cm
same,Top dry weight Corn,[2]; [14],0.40 g
same,Corn values compared with Comparative Example 5a (in words),[2]; [15],better values
same,Largest root length Wheat A: number relative to 100 of Comparative Example 6b,[3]; [16],100
same,Number of rooted individuals Wheat A: number relative to 100 of Comparative Example 6b,[3]; [16],104
same,Plant height Wheat A: number relative to 100 of Comparative Example 6b,[3]; [16],98
same,Root dry weight Wheat A: number relative to 100 of Comparative Example 6b,[3]; [16],94
same,Top dry weight Wheat A: number relative to 100 of Comparative Example 6b,[3]; [16],96
same,Largest root length Wheat,[3]; [17],18.3 cm
same,Number of rooted individuals Wheat,[3]; [17],8.0 Number
same,Plant height Wheat,[3]; [17],29.3 cm
same,Root dry weight Wheat,[3]; [17],0.034 g
same,Top dry weight Wheat,[3]; [17],0.059 g
same,"Number of rooted individuals, plant height and root dry weight compared with Comparative Example 6a (in words)",[3]; [15],better
same,"Growth and yield measurements, effect of chemical treatment (in words)","[4]; 2 g/L sodium chloride aqueous solution, 28 g ai per 10 a under submerged conditions",same effect was observed
same,Growth and yield measurements compared with Comparative Example 4a (in words),"[4]; 10 g/L sodium chloride aqueous solution, chemical solution 4, 56 mL per pot, 280 g ai per 10 a, on 50th day after sowing, FIGS. 1 to 14",better values
same,Foliage Length,wheat (Norin 61) [5]; [18],68.8 mm
same,Root Length,wheat (Norin 61) [5]; [18],49.6 mm
same,Root Number of roots,wheat (Norin 61) [5]; [18],5.6
same,Foliage Length,wheat (Norin 61) [5]; [19],64.2 mm
same,Root Length,wheat (Norin 61) [5]; [19],50.2 mm
same,Root Number of roots,wheat (Norin 61) [5]; [19],5.2
same,Foliage Recovery percentage,wheat (Norin 61) [5]; [20],31.0%
same,Root Recovery percentage,wheat (Norin 61) [5]; [20],8.1%
same,Foliage Recovery percentage,wheat (Norin 61) [5]; [21],15.8%
same,Root Recovery percentage,wheat (Norin 61) [5]; [21],9.1%
same,Recovery compared with Comparative Example 1a (in words),wheat (Norin 61) [5]; [8],more recovery
same,Plant height Soybean A: number relative to 100 of Comparative Example 5b,soybean (Enrei); [13],101
same,Root dry weight Soybean A: number relative to 100 of Comparative Example 5b,soybean (Enrei); [13],72
same,Root length Soybean A: number relative to 100 of Comparative Example 5b,soybean (Enrei); [13],105
same,Top dry weight Soybean A: number relative to 100 of Comparative Example 5b,soybean (Enrei); [13],91
same,Plant height Soybean,soybean (Enrei); [14],48.3 cm
same,Root dry weight Soybean,soybean (Enrei); [14],0.15 g
same,Root length Soybean,soybean (Enrei); [14],14.3 cm
same,Top dry weight Soybean,soybean (Enrei); [14],0.72 g
same,Soybean values compared with Comparative Example 5a (in words),soybean (Enrei); [15],better values
